{"source": "patent US20090118253A1", "about": "“COMPOSITIONS AND METHODS FOR TREATING DYSFUNCTIONAL UTERINE BLEEDING” (REPROS THERAPEUTICS INC., priority 2007, published 2009)", "key": {"Serum cortisol in rats": {"assay": "Serum cortisol in rats", "assay_type": "in vivo, rat", "protocol": "These higher levels were in the range of 3-4 ug/dl (30-40 ng/ml)."}, "[1]": {"assay": "Six month endometriosis study: estrogen concentrations and biomarkers of bone resorption", "conditions": "women", "method": "Thirty-nine pre-menopausal adult women diagnosed with endometriosis were the subject of a six month study of Proellex™ (CDB-4124) in the treatment of endometriosis. The study included three dose levels of CDB-4124 as well as a positive control arm. The positive control was Lucrin®, a GnRH agonist, commonly used for the treatment of endometriosis (also known as Lupron®). CDB-4124 was administered in a double blinded fashion as a daily oral capsule at dosages of 12.5mg/day (n=2), 25mg/day (n=3) and 50mg/day (n=3). Another group (n=4) were injected with a slow release formulation of Lucrin® once per month as a positive control."}, "[2]": {"assay": "Urinary estrogen levels (follicular phase) in cynomolgus monkeys", "assay_type": "in vivo, Cynomolgus monkeys (Macaca fascicularis)", "parameters": "Urinary estrogen, follicular phase, Mean: unit not given here", "conditions": "for Urinary estrogen, follicular phase, Mean: CDB-4124 or RU-486 oral 1.0 mg/kg/day, Lupron IM once per month", "protocol": "Cynomolgus monkeys (Macaca fascicularis) (n=14) were treated orally for 36 weeks with CDB-4124 or RU-486 at 1.0 mg/kg/day or with placebo (control). Another group (n=14) received Lupron® IM once per month. Urinary progesterone levels were measured for each animal for one month during the middle of the study (weeks 14-17) and for the last month of the study (weeks 33-36). The results are presented below:\nUrinary estrogen levels were measured for each animal of Example 6 for one month during the middle of the study (weeks 14-17) and for the last month of the study (weeks 33-36). The follicular phase results are based on 35 baseline ovulating cycles."}, "[3]": {"tested_on": "Cynomolgus monkey endometrial epithelium, uterus stroma and breast", "assay": "TUNEL apoptosis in cynomolgus monkey tissue", "assay_type": "in vivo, Cynomolgus monkeys (Macaca fascicularis)", "conditions": "week 36, percent apoptotic cells", "protocol": "Apoptosis was assessed in tissue from the same animals on slides by the terminal deoxynucleotidyl transferase mediated dUTP-biotin nick end labeling (TUNEL) technique."}, "[4]": {"tested_on": "Cynomolgus monkey endometrial epithelia, uterus stroma and breast", "assay": "BrdU incorporation, tissue proliferation in cynomolgus monkeys", "assay_type": "in vivo, Cynomolgus monkeys (Macaca fascicularis)", "conditions": "week 36, % cells positive for incorporation of BrdU, three animals per group", "protocol": "At week 36, three animals from each group of Example 6 were injected within 24 hours of sacrifice with the thymidine analog bromodeoxyuridine (BrdU), a marker of proliferating cells and their progeny, to assess tissue proliferation. Full thickness uterine sections were stained and examined microscopically for evidence of proliferation in terms of the % cells positive for incorporation of BrdU: […]"}, "[5]": {"tested_on": "rabbit progesterone receptor (rbPR) and glucocorticoid receptor (rbGR)", "assay": "Receptor-binding assays, ratio of relative binding affinities rbPR/rbGR", "conditions": "ratio of relative binding affinities (RBA = EC50 of standard/EC50 of test compound x 100) for rbPR and rbGR", "protocol": "Certain antiprogestins were tested in receptor-binding assays for their ability to bind rabbit progesterone receptor (rbPR) and glucocorticoid receptor (rbGR). Briefly, cytosol containing PR or GR were prepared in TEGMD buffer (10 mM Tris, pH 7.2, 1.5 mM EDTA, 0.2 mM sodium molybdate, 10% glycerol, 1 mM DTT) from uterus or thymus, respectively, of estradiol-primed immature rabbits. For PR binding, the cytosol was incubated with 6 nM 1,2-[^3H]progesterone (50.0 Ci/mmole) and competitors were added at concentrations from 2 to 100 nM. For binding to GR, the cytosol was incubated with 6 nM 6,7-[^3H]-dexamethasone (40 Ci/mmol) and test compounds were added at concentrations from 20 to 100 nM. After overnight incubation at 4 C, bound and unbound [^3H] steroids were separated by addition of dextran-coated charcoal and centrifugation at 2100×g for 15 min at 4 C. Supernatants containing the [3H]-steroid receptor complexes were decanted into vials containing 4 ml Optifluor (Packard Instrument Co.), vortexed, equilibrated in a liquid scintillation counter for 30 minutes and then counted for 2 minutes. The EC50 (Effective Concentration) for each standard curve and each of the compound curves was determined by entering the counting data into a four parameter sigmoidal computer program (RiaSmart® Immunoassay Data Reduction Program, Packard Instrument Co., Meriden, Conn.). Relative binding affinity (RBA) for each compound was calculated using the following equation: EC50 of standard/EC50 of test compound×100. The standards for the PR and GR assays were unlabeled progesterone and dexamethasone, respectively. The results of these experiments are summarized in Table 1, as a ratio of the relative binding affinities of each compound for the rbPR and rbGR receptors (rbPR/rbGR)."}, "[6]": {"assay": "Urinary progesterone levels (luteal phase) in cynomolgus monkeys", "assay_type": "in vivo, Cynomolgus monkeys (Macaca fascicularis)", "conditions": "n=14 per group; CDB-4124 or RU-486 oral 1.0 mg/kg/day for 36 weeks; Lupron IM once per month", "protocol": "Cynomolgus monkeys (Macaca fascicularis) (n=14) were treated orally for 36 weeks with CDB-4124 or RU-486 at 1.0 mg/kg/day or with placebo (control). Another group (n=14) received Lupron® IM once per month. Urinary progesterone levels were measured for each animal for one month during the middle of the study (weeks 14-17) and for the last month of the study (weeks 33-36)."}}}
{"compound": "COCC(=O)[C@@]1(OC(C)=O)CC[C@H]2[C@@H]3CCC4=CC(=O)CCC4=C3[C@@H](c3ccc(N(C)C)cc3)C[C@@]21C", "note": "[CDB-4124, 21-methoxy-17α-acetoxy-11β-(4 N,N-dimethylaminophenyl)-19-norpregna-4,9-diene-3,20-dione]", "values": [{"measurement": "levels of serum cortisol versus control group", "setting": "Serum cortisol in rats; 10 mg/kg, 21 days of chronic dosing", "result": "significantly higher"}, {"measurement": "effect of increasing doses on serum cortisol", "setting": "Serum cortisol in rats; FIG. 2", "result": "dose-dependent"}, {"measurement": "estrogen concentrations (mean)", "setting": "[1]; all doses of CDB-4124 (12.5, 25, 50 mg/day)", "result": "> 40", "unit": "pg/mL"}, {"measurement": "biomarkers of bone resorption compared with baseline", "setting": "[1]; three and six months of treatment", "result": "no significant changes"}, {"measurement": "Follicular phase estrogen Lower?", "setting": "[2]; Week 18", "result": "No"}, {"measurement": "Urinary estrogen, follicular phase, Mean", "setting": "[2]; Week 18", "result": 63.8}, {"measurement": "Follicular phase estrogen Lower?", "setting": "[2]; Week 36", "result": "No"}, {"measurement": "Urinary estrogen, follicular phase, Mean", "setting": "[2]; Week 36", "result": 67.3}, {"measurement": "Breast Apo %", "setting": "[3]", "result": "2.6 ± 0.9", "unit": "%"}, {"measurement": "Uterus epithelium Apo %", "setting": "[3]", "result": "0.5 ± 0.2", "unit": "%"}, {"measurement": "Uterus stroma Apo %", "setting": "[3]", "result": "0.5 ± 0.1", "unit": "%"}, {"measurement": "Breast Brdu-%", "setting": "[4]", "result": "1.9 ± 0.7", "unit": "%"}, {"measurement": "Uterus epithelium Brdu-%", "setting": "[4]", "result": "2.1 ± 2.2", "unit": "%"}, {"measurement": "Uterus stroma Brdu-%", "setting": "[4]", "result": "1.1 ± 0.25", "unit": "%"}, {"measurement": "rbPR/rbGR", "setting": "[5]", "result": 1.58}, {"measurement": "Decrease in luteal phase progesterone (number of animals)", "setting": "[6]", "result": 8}, {"measurement": "No decrease in luteal phase progesterone (number of animals)", "setting": "[6]", "result": 6}]}
